Experimental data taken from patent US8802664B2 (Bioproject, priority 2010, dated 2014).
Counter-ions that a name gives are not always drawn.

Experiments:
[1] = target: T1, human H4 receptor (Homo sapiens, UniProt Q9H3N8); assay: [3H]Histamine binding on membranes of CHO cells stably expressing human H4 receptor
T1 construct: expressed in transfected cells
Procedure, shortened: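 CHO-hH4 membranes 20 μg/well; buffer 50 mM Tris/HCl, 0.5 mM EDTA, pH 7.4; NSB: 10 μM JNJ 7777120 (BP1.2404); GF/B filtration (PEI-presoaked), 3 ice-cold washes; scintillation counting.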

Row | melting point [°C] | Ki or IC50 activity class [1] [µM] | Compound
1 | 109 |  | COCCn1c(C(OC2CCN(C)CC2)c2cccc(C#CCCCCN)c2)nc2ccccc21 (stereo not drawn) (as salt: oxalate) [Example 501]
2 | 85 |  | CN1CCC(OC(c2cccc(SCCCF)c2)c2nc3ccccc3[nH]2)CC1 (stereo not drawn) (as salt: oxalate) [Example 508]
3 | 70 |  | CN1CCC(OC(c2nc3cc(F)ccc3[nH]2)c2cc(OC(F)(F)F)ccc2F)CC1 (stereo not drawn) (as salt: oxalate) [Example 509]
4 | 107 |  | CN1CCC(OC(c2nc3ccccc3[nH]2)c2cc(OC(F)(F)F)ccc2Cl)CC1 (stereo not drawn) (as salt: oxalate) [Example 524]
5 | 103 |  | CN1CCC(OC(c2nc3ccccc3o2)c2cc(OC(F)(F)F)ccc2F)CC1 (stereo not drawn) (as salt: oxalate) [Example 525, 2-[(2-fluoro-5-trifluoromethoxyphenyl)(1-methylpiperidin-4-yloxy)methyl]benzoxazole]
6 | 95 |  | CN1CCC(OC(c2nc3ccccc3s2)c2cc(OC(F)(F)F)ccc2F)CC1 (stereo not drawn) (as salt: oxalate) [Example 526]
7 | 135 |  | CN1CCC(OC(c2nc3cccc(F)c3[nH]2)c2cc(OC(F)(F)F)ccc2F)CC1 (stereo not drawn) (as salt: oxalate) [Example 529]
8 | 125 |  | Cc1cc(F)c(C(OC2CCN(C)CC2)c2nc3ccccc3s2)c(F)c1 (stereo not drawn) (as salt: oxalate) [Example 531]
9 | 158 |  | CN1CCC(OC(c2nc3ccccc3s2)c2c(F)cc(Cl)cc2F)CC1 (stereo not drawn) (as salt: oxalate) [Example 532]
10 | 114 |  | Cc1cc(F)c(C(OC2CCN(C)CC2)c2nc3ccccc3o2)c(F)c1 (stereo not drawn) (as salt: oxalate) [Example 536]
11 | 110 |  | Cc1ccc(C(OC2CCN(C)CC2)c2nc3ccccc3o2)c(F)c1 (stereo not drawn) (as salt: oxalate) [Example 545]
12 | 130 |  | CN1CCC(OC(c2cc(C(F)(F)F)cc(C(F)(F)F)c2)c2nc3ccccc3[nH]2)CC1 (stereo not drawn) (as salt: oxalate) [Example 547]
13 | 90 |  | CCOC(=O)NCCCCC#Cc1cccc(C(OC2CCN(C)CC2)c2nc3ccccc3n2C)c1 (stereo not drawn) (as salt: oxalate) [Example 549, ethyl (6-{3-[(1-methyl-1H-benzimidazol-2-yl)(1-methylpiperidin-4-yloxy)methyl]phenyl}hex-5-ynyl)carbamate]
14 | 170 |  | CN1CCC(OC(c2ccc3cc[nH]c3c2)c2nc3ccccc3[nH]2)CC1 (stereo not drawn) (as salt: oxalate) [Example 550, 2-[(1H-indol-6-yl)(1-methylpiperidin-4-yloxy)methyl]-1H-benzimidazole]
15 | 118 |  | CCOC(=O)n1c(C(OC2CCN(C)CC2)c2cc(OC(F)(F)F)ccc2F)nc2ccccc21 (stereo not drawn) (as salt: oxalate) [Example 553]
16 | 160 |  | CN1CCC(OC(c2ccc3ccsc3c2)c2nc3ccccc3[nH]2)CC1 (stereo not drawn) (as salt: oxalate) [Example 556, 2-[benzo[b]thiophen-6-yl(1-methylpiperidin-4-yloxy)methyl]-1H-benzimidazole]
17 | 195 |  | CN1CCC(OC(c2nc3ccccc3[nH]2)c2cc(C#CCCCCN)ccc2F)CC1 (stereo not drawn) (as salt: oxalate) [Example 557, 6-{3-[(1H-benzimidazol-2-yl)(1-methylpiperidin-4-yloxy)methyl]-4-fluorophenyl}hex-5-ynylamine]
18 | 85 | < 0.03 | CN1CCC(OC(c2cccc(Br)c2)c2nc3ccccc3[nH]2)CC1 (single isomer, unassigned) [Example 564, 2-[(3-bromophenyl)(1-methylpiperidin-4-yloxy)methyl]-1H-benzimidazole]
19 | 84 | < 0.3 | CN1CCC(OC(c2cccc(C#CCCCN)c2)c2nc3ccccc3[nH]2)CC1 (single isomer, unassigned) [Example 565, 5-{3-[(1H-benzimidazol-2-yl)(1-methylpiperidin-4-yloxy)methyl]phenyl}pent-4-ynylamine]
20 | 82 | < 0.03 | CN1CCC(OC(c2cccc(C#CCCCN)c2)c2nc3ccccc3[nH]2)CC1 (single isomer, unassigned) [Example 566, 5-{3-[(1H-benzimidazol-2-yl)(1-methylpiperidin-4-yloxy)methyl]phenyl}pent-4-ynylamine]
21 | 89 | < 0.3 | CN1CCC(OC(c2cccc(Br)c2)c2nc3cc(F)ccc3[nH]2)CC1 (single isomer, unassigned) [Example 567, 2-[(3-bromophenyl)(1-methylpiperidin-4-yloxy)methyl]-5-fluoro-1H-benzimidazole]

The remaining lines, values behind:

Row | Compound | melting point [°C] | Ki or IC50 activity class [1] [µM]
22 | CN1CCC(OC(c2cccc(N3CC4CN(C)CC4C3)c2)c2nc3ccccc3s2)CC1 (stereo not drawn) (as salt: oxalate) [Example 485] | 131 | 
23 | COc1ccc(F)c(C(OC2CCN(C)CC2)c2nc3ccccc3[nH]2)c1 (stereo not drawn) (as salt: oxalate) [Example 486] | 105 | 
24 | CN1CCC(OC(c2nc3ccccc3[nH]2)c2cc(O)ccc2F)CC1 (stereo not drawn) (as salt: oxalate) [Example 487] | 135 | 
25 | CN1CCC(OC(c2nc3ccccc3[nH]2)c2cc(OCCF)ccc2F)CC1 (stereo not drawn) (as salt: oxalate) [Example 489] | 109 | 
26 | Cc1ccc(F)c(C(OC2CCN(C)CC2)c2nc3ccccc3[nH]2)c1 (stereo not drawn) (as salt: oxalate) [Example 490] | 132 | 
27 | CN1CCC(OC(c2cccc(SCCCCN)c2)c2nc3cc(F)c(F)c(F)c3[nH]2)CC1 (stereo not drawn) (as salt: oxalate) [Example 493] | 110 | 
28 | CN1CCC(OC(c2cccc(SCCCCN)c2)c2nc3cc(F)c(F)cc3[nH]2)CC1 (stereo not drawn) (as salt: oxalate) [Example 495] | 180 | 
29 | CCOCCn1c(C(OC2CCN(C)CC2)c2cccc(I)c2)nc2ccccc21 (stereo not drawn) (as salt: oxalate) [Example 497, 1-(2-ethoxyethyl)-2-[(3-iodophenyl)(1-methylpiperidin-4-yloxy)methyl]-1H-benzimidazole] | 88 | 
30 | CCOCCn1c(C(OC2CCN(C)CC2)c2cccc(C#CCCCCN)c2)nc2ccccc21 (stereo not drawn) (as salt: oxalate) [Example 500] | 103 | 
31 | CN1CCC(COC(c2cccc(Br)c2)c2nc3ccccc3s2)C1 (single isomer, unassigned) (as salt: oxalate) [Example 464] | 68 | 
32 | CN1CCC(OC(c2ccccc2)c2nc3ccccc3s2)CC1 (stereo not drawn) [Example 1, 2-[(1-methylpiperidin-4-yloxy)phenylmethyl]benzothiazole] | 115 | < 0.3
33 | CN1CCC(OC(c2nc3ccccc3s2)c2cccc3ccccc23)CC1 (stereo not drawn) [Example 17, 2-[(1-methylpiperidin-4-yloxy)naphthalen-1-ylmethyl]benzothiazole] | 106.5 | < 1
34 | CN1CCC(OC(c2cccc(Br)c2)c2nc3ccccc3s2)CC1 (stereo not drawn) [Example 27, 2-[(3-bromo-phenyl)(1-methylpiperidin-4-yloxy)methyl]benzothiazole] | 99 | < 0.03
35 | CN1CCC(OC(c2ccccc2)c2nc3ccccc3[nH]2)CC1 (stereo not drawn) [Example 30, 2-[(1-methylpiperidin-4-yloxy)phenylmethyl]-1H-benzimidazole] | 110 | < 0.3
36 | CN1CCC(NC(c2ccccc2)c2nc3ccccc3[nH]2)CC1 (stereo not drawn) [Example 39, [(1H-benzimidazol-2-yl)phenylmethyl](1-methylpiperidin-4-yl)amine] | 133 | < 0.3
37 | CCCOc1cccc(C(NC2CCN(C)CC2)c2nc3ccccc3s2)c1 (stereo not drawn) [Example 42, [benzothiazol-2-yl(3-propoxyphenyl)methyl](1-methylpiperidin-4-yl)amine] | 90 | < 0.03
38 | Cc1cc(F)cc(C(NC2CCN(C)CC2)c2nc3ccccc3s2)c1 (stereo not drawn) [Example 44, [benzothiazol-2-yl(3-fluoro-5-methylphenyl)methyl](1-methylpiperidin-4-yl)amine] | 102 | < 1
39 | CCCOc1cccc(C(OC2CCN(C)CC2)c2nc3ccccc3[nH]2)c1 (stereo not drawn) [Example 49, 2-[(1-methylpiperidin-4-yloxy)(3-propoxyphenyl)methyl]-1H-benzimidazole] | 135 | < 1
40 | CCCOc1cccc(C(NC2CCN(C)CC2)c2nc3ccccc3[nH]2)c1 (stereo not drawn) [Example 50, [(1H-benzimidazol-2-yl)(3-propoxyphenyl)methyl](1-methylpiperidin-4-yl)amine] | 143 | < 0.03
41 | CN1CCC(OC(c2cccc(I)c2)c2nc3ccccc3[nH]2)CC1 (stereo not drawn) [Example 51, 2-[(3-iodophenyl)(1-methylpiperidin-4-yloxy)methyl]-1H-benzimidazole] | 173.5 | < 0.03
42 | CN1CCC(NC(c2cccnc2)c2nc3ccccc3s2)CC1 (stereo not drawn) [Example 52, (benzothiazol-2-ylpyridin-3-ylmethyl)(1-methylpiperidin-4-yl)amine] | 109 | < 1
43 | CN1CCC(NC(c2ccc[nH]2)c2nc3ccccc3s2)CC1 (stereo not drawn) [Example 58, [benzothiazol-2-yl(1H-pyrrol-2-yl)methyl](1-methylpiperidin-4-yl)amine] | 125 | < 0.3
44 | CN1CCC(NC(c2cccc(C(F)(F)F)c2)c2nc3ccccc3[nH]2)CC1 (stereo not drawn) [Example 59, [(1H-benzimidazol-2-yl)(3-trifluoromethylphenyl)methyl](1-methylpiperidin-4-yl)amine] | 90 | < 0.03
45 | CN1CCC(NC(c2cccc(OC(F)(F)F)c2)c2nc3ccccc3[nH]2)CC1 (stereo not drawn) [Example 60, [(1H-benzimidazol-2-yl)(3-trifluoromethoxyphenyl)methyl](1-methylpiperidin-4-yl)amine] | 82 | < 0.03
